#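 Method: 48-hour compound exposure of cells in 96-well plates, five concentrations, linear interpolation of endpoints. At the TGI there is no net growth.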
# Experiments:
# Assay in all cases: NCI anticancer screen, dose series, 48 h
# [1] = test system: HL-60(TB) leukemia
# [2] = test system: MDA-MB-231 breast
# [3] = test system: RPMI-8226 leukemia
# [4] = test system: A549 NSCLC
# [5] = test system: SK-MEL-28 melanoma
# [6] = test system: BT-549 breast
# [7] = test system: DU-145 prostate
# [8] = test system: HOP-92 NSCLC
# [9] = test system: UACC-257 melanoma
# [10] = test system: SW-620 colon
# [11] = test system: CAKI-1 renal
# [12] = test system: OVCAR-4 ovarian
# [13] = test system: HOP-62 NSCLC
# [14] = test system: LOX IMVI melanoma
# [15] = test system: SK-MEL-2 melanoma
# [16] = test system: CCRF-CEM leukemia
# [17] = test system: 786-0 renal
# [18] = test system: UACC-62 melanoma
# [19] = test system: SF-539 CNS
# [20] = test system: PC-3 prostate
# [21] = test system: EKVX NSCLC
# [22] = test system: COLO 205 colon
# [23] = test system: HCC-2998 colon
# [24] = test system: MOLT-4 leukemia
# [25] = test system: M14 melanoma
# [26] = test system: RXF 393 renal
# [27] = test system: T-47D breast
# [28] = test system: NCI/ADR-RES ovarian
# [29] = test system: NCI-H522 lung
# [30] = test system: HT29 colon
# [31] = test system: NCI-H23 lung
# [32] = test system: MALME-3M melanoma
# [33] = test system: KM12 colon
# [34] = test system: MDA-N
# [35] = test system: SN12C renal
# [36] = test system: NCI-H460 lung
# [37] = test system: SK-OV-3 ovarian
# [38] = test system: A498 renal
# [39] = test system: MCF7 breast
# [40] = test system: TK-10 renal
# [41] = test system: HCT-15 colon
# [42] = test system: HCT-116 colon
# [43] = test system: UO-31 renal
# [44] = test system: OVCAR-8 ovarian
# [45] = test system: OVCAR-3 ovarian
# [46] = test system: MDA-MB-435
# [47] = test system: NCI-H226 lung
# [48] = test system: IGROV1 ovarian
# [49] = test system: SR leukemia
# [50] = test system: U251 CNS
# [51] = test system: OVCAR-5 ovarian
# [52] = test system: K-562 leukemia
# [53] = test system: SNB-75 CNS
# [54] = test system: SK-MEL-5 melanoma
# [55] = test system: SF-295 CNS
# [56] = test system: SNB-19 CNS
# [57] = test system: ACHN renal
# [58] = test system: SF-268 CNS
# [59] = test system: HS 578T breast
smiles,measurement,setting,value
COc1ccc([C@]23CCC4(OCC(C)(C)CO4)[C@H]4CON(O[C@H](O[C@@H]5CCCCC5C(C)(C)c5ccccc5)C2)[C@@H]43)cc1OC (some centres undefined),TGI,[1],44.4 µM
same,TGI,[2],> 100 µM
same,TGI,[3],> 100 µM
same,TGI,[4],> 100 µM
same,TGI,[5],> 100 µM
same,TGI,[6],> 100 µM
same,TGI,[7],> 100 µM
same,TGI,[8],> 100 µM
same,TGI,[9],> 100 µM
same,TGI,[10],> 100 µM
same,TGI,[11],39 µM
same,TGI,[12],> 100 µM
same,TGI,[13],> 100 µM
same,TGI,[14],> 100 µM
same,TGI,[15],> 100 µM
same,TGI,[16],> 100 µM
same,TGI,[17],> 100 µM
same,TGI,[18],> 100 µM
same,TGI,[19],76.5 µM
same,TGI,[20],> 100 µM
same,TGI,[21],> 100 µM
same,TGI,[22],> 100 µM
same,TGI,[23],> 100 µM
same,TGI,[24],53.1 µM
same,TGI,[25],> 100 µM
same,TGI,[26],> 100 µM
same,TGI,[27],> 100 µM
same,TGI,[28],> 100 µM
same,TGI,[29],> 100 µM
same,TGI,[30],> 100 µM
same,TGI,[31],> 100 µM
same,TGI,[32],> 100 µM
same,TGI,[33],> 100 µM
same,TGI,[34],> 100 µM
same,TGI,[35],> 100 µM
same,TGI,[36],> 100 µM
same,TGI,[37],> 100 µM
same,TGI,[38],> 100 µM
same,TGI,[39],> 100 µM
same,TGI,[40],> 100 µM
same,TGI,[41],> 100 µM
same,TGI,[42],> 100 µM
same,TGI,[43],> 100 µM
same,TGI,[44],> 100 µM
same,TGI,[45],> 100 µM
same,TGI,[46],> 100 µM
same,TGI,[47],> 100 µM
same,TGI,[48],> 100 µM
same,TGI,[49],49.4 µM
same,TGI,[50],> 100 µM
same,TGI,[51],> 100 µM
same,TGI,[52],> 100 µM
same,TGI,[53],> 100 µM
same,TGI,[54],45.4 µM
same,TGI,[55],> 100 µM
same,TGI,[56],> 100 µM
O=C1c2cc3c(cc2CC12Cc1ccc4c(c1C2=O)CCC4)CCC3 (centres undefined),TGI,[1],> 100 µM
same,TGI,[2],> 100 µM
same,TGI,[3],> 100 µM
same,TGI,[4],> 100 µM
same,TGI,[5],> 100 µM
same,TGI,[7],> 100 µM
same,TGI,[8],> 100 µM
same,TGI,[9],> 100 µM
same,TGI,[10],> 100 µM
same,TGI,[11],> 100 µM
same,TGI,[12],> 100 µM
same,TGI,[13],> 100 µM
same,TGI,[14],> 100 µM
same,TGI,[15],> 100 µM
same,TGI,[16],> 100 µM
same,TGI,[17],> 100 µM
same,TGI,[19],> 100 µM
same,TGI,[20],> 100 µM
same,TGI,[21],> 100 µM
same,TGI,[23],> 100 µM
same,TGI,[24],> 100 µM
same,TGI,[57],> 100 µM
same,TGI,[58],> 100 µM
same,TGI,[25],> 100 µM
same,TGI,[26],> 100 µM
same,TGI,[27],> 100 µM
same,TGI,[28],> 100 µM
same,TGI,[29],> 100 µM
same,TGI,[30],> 100 µM
same,TGI,[59],> 100 µM
same,TGI,[31],> 100 µM
same,TGI,[32],> 100 µM
same,TGI,[34],> 100 µM
same,TGI,[36],> 100 µM
same,TGI,[37],> 100 µM
same,TGI,[38],> 100 µM
same,TGI,[39],> 100 µM
same,TGI,[40],> 100 µM
same,TGI,[41],> 100 µM
same,TGI,[42],> 100 µM
same,TGI,[43],> 100 µM
same,TGI,[44],> 100 µM
same,TGI,[45],> 100 µM
same,TGI,[46],> 100 µM
same,TGI,[48],> 100 µM
same,TGI,[49],> 100 µM
same,TGI,[50],> 100 µM
same,TGI,[51],> 100 µM
same,TGI,[52],> 100 µM
same,TGI,[53],> 100 µM
same,TGI,[54],> 100 µM
same,TGI,[55],> 100 µM
same,TGI,[56],> 100 µM

# Reference: PubChem BioAssay (NCI)
